The values that follow come from PMC6099740, “Design, Synthesis and Biological Evaluation of 6,7-Disubstituted-4-phenoxyquinoline Derivatives Bearing Pyridazinone Moiety as c-Met Inhibitors” (Molecules : A Journal of Synthetic Chemistry and Natural …, 2018).

Some results are limits rather than exact numbers.

Data set [1] relates to MCF-7 cells. Description: MTT cytotoxicity assay, MCF-7. As to conditions: Homo sapiens, MCF7, 72 h. Format: cell-based. The protocol: (§1) The results expressed as IC50 values were summarized in Table 1, and the values were the average of at least two independent experiments.
(§2) The cancer cell lines were cultured in minimum essential medium (MEM) supplement with 10% fetal bovine serum (FBS). […] The test compounds at indicated final concentrations were added to the culture medium and the cell cultures were continued for 72 h. […] All of the compounds were tested two times in each of the cell lines. The results expressed as inhibition rates or IC50 (half-maximal inhibitory concentration) were the averages of two determinations and calculated by using the Bacus Laboratories Incorporated Slide Scanner (Bliss) software (the Bacus Laboratories Inc. Slide Scanner (BLISS) system, Lombard, IL, USA)..
In general terms: Tetrazolium dyes change colour on reduction, which living cells bring about.

The subject of data set [2] is A549 cells. As to the kind of experiment: MTT cytotoxicity assay, A549. Format: cell-based. As to conditions: Homo sapiens, 72 h. Here is the method:
as §1, §2

Data set [3] has as its target c-Met kinase (Homo sapiens, UniProt P08581). Description: c-Met kinase inhibition assay (HTRF; mobility shift). Background: Time-resolved FRET reads energy transfer from a long-lived donor to a nearby acceptor.
Protocol: All kinase assays were performed in 96-well plates in a 50 µL reaction volume. The kinase buffer contains 50 mM HEPES, pH 7.5, 10 mM MgCl2, 0.0015% Brij-35 and 2 mM DTT. The stop buffer contains 100 mM HEPES, pH 7.5, 0.015% Brij-35, 0.2% Coating Reagent 3 and 50 mM EDTA. Dilute the compounds to 500 µM by 100% DMSO, then transfer 10 µL of compound to a new 96-well plate as the intermediate plate, add 90 µL kinase buffer to each well. Transfer 5 µL of each well of the intermediate plate to 384-well plates. The following amounts of enzyme and substrate were used per well: kinase base buffer, FAM-labeled peptide, ATP and enzyme solution. Wells containing the substrate, enzyme, DMSO without compound were used as DMSO control. Wells containing just the substrate without enzyme were used as low control. Incubate at room temperature for 10 min. Add 10 µL peptide solution to each well. […] At last collect data on Caliper program and convert conversion values to inhibition values. Percent inhibition = (max − conversion)/(max − min) × 100. ‘max’ stands for DMSO control; ‘min’ stands for low control [20].
Data set [4] has as its system HepG2 cells. As to the kind of experiment: MTT cytotoxicity assay, HepG2. It is filed as cell-based. The conditions noted are these: Homo sapiens, 72 h. The protocol: as §1
The cancer cell lines were cultured in minimum essential medium (MEM) supplement with 10% fetal bovine serum (FBS). Approximately 4 × 10^3 cells, suspended in MEM medium, were plated onto each well of a 96-well plate and incubated in 5% CO2 at 37 °C for 24 h. The test compounds at indicated final concentrations were added to the culture medium and the cell cultures were continued for 72 h. Fresh MTT was added to each well at a terminal concentration of 5 μg/mL and incubated with cells at 37 °C for 4 h. The formazan crystals were dissolved in 100 μL DMSO each well, and the absorbency at 492 nm (for absorbance of MTT formazan) and 630 nm (for the reference wavelength) was measured with the ELISA reader. All of the compounds were tested two times in each of the cell lines. The results expressed as inhibition rates or IC50 (half-maximal inhibitory concentration) were the averages of two determinations and calculated by using the Bacus Laboratories Incorporated Slide Scanner (Bliss) software (the Bacus Laboratories Inc. Slide Scanner (BLISS) system, Lombard, IL, USA)..

Sequence of c-Met kinase (P08581 25-1390): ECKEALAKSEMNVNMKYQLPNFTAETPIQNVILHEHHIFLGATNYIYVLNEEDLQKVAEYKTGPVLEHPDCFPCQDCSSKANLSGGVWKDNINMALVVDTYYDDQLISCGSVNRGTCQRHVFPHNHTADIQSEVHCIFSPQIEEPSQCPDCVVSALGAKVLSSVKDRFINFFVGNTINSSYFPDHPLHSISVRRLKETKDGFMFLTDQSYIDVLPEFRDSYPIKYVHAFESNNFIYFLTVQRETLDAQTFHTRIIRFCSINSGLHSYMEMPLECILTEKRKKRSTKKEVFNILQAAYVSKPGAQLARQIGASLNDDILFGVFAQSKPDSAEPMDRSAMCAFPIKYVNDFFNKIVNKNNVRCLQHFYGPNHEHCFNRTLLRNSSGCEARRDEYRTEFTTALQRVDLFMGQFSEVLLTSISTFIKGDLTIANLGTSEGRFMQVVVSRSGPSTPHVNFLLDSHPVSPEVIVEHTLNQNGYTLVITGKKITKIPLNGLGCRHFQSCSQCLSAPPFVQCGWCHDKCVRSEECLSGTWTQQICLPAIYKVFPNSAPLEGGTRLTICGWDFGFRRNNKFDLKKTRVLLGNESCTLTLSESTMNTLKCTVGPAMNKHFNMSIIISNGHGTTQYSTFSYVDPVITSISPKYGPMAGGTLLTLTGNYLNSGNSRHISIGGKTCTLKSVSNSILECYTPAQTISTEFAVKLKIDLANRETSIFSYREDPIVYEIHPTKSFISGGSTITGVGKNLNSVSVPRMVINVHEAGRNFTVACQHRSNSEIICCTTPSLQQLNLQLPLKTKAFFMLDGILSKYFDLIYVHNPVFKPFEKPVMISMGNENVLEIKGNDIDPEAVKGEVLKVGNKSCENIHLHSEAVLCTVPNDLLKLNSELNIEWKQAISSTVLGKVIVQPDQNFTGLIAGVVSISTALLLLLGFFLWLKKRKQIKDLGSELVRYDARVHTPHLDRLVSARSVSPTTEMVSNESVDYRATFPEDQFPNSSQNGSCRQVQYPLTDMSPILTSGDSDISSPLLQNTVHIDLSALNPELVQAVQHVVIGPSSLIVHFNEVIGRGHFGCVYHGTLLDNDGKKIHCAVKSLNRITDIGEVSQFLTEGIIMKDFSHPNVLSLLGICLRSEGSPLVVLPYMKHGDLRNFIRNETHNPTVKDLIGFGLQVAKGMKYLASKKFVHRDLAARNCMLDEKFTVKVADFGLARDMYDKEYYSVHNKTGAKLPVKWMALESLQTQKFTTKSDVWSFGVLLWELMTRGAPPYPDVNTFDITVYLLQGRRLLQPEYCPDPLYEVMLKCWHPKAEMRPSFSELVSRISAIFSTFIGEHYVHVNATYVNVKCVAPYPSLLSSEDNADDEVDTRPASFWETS

Compound `COc1cc2c(Oc3ccc(NC(=O)c4nn(-c5ccc(F)cc5)ccc4=O)cc3F)ccnc2cc1OCCCN1CCOCC1` [Compound 22] gave a melting point of 152.3 to 153.5 °C. This compound also returned an IC50 in data set [1] of 210 ± 20 nM. This compound came in with an IC50 in data set [2] of 250 ± 10 nM. For the same compound, the IC50 in data set [3] stood at 47 nM. Further, in data set [4], 2230 ± 350 nM corresponded to half-maximal inhibition (IC50).

`COc1cc2c(Oc3ccc(NC(=O)c4nn(-c5ccc(Cl)cc5)ccc4=O)cc3F)ccnc2cc1OCCCN1CCOCC1` [Compound 23, 1-(4-Chlorophenyl)-N-(3-fluoro-4-((6-methoxy-7-(3-morpholinopropoxy)quinolin-4-yl)oxy)phenyl)-4-oxo-1,4-dihydropyridazine-3-carboxamide] displayed a melting point of 138.2 to 139.1 °C. The IC50 in data set [1] was above 50000 nM. In addition, the IC50 in data set [2] is above 50000 nM. Besides, the IC50 in data set [3] was above 500 nM. Besides, the IC50 in data set [4] is above 50000 nM.

Turning to `COc1cc2c(Oc3ccc(NC(=O)c4nn(-c5ccc(Br)cc5)ccc4=O)cc3F)ccnc2cc1OCCCN1CCOCC1` [Compound 24, 1-(4-Bromophenyl)-N-(3-fluoro-4-((6-methoxy-7-(3-morpholinopropoxy)quinolin-4-yl)oxy)phenyl)-4-oxo-1,4-dihydropyridazine-3-carboxamide], the melting point fell in the range of 125.7 to 127.1 °C. In data set [1], this compound showed an IC50 above 50000 nM. Further, in data set [2], the IC50 was above 50000 nM. Further, the IC50 in data set [3] was above 500 nM. The same compound displayed an IC50 in data set [4] above 50000 nM.

In turn, `COc1ccc(-n2ccc(=O)c(C(=O)Nc3ccc(Oc4ccnc5cc(OCCCN6CCOCC6)c(OC)cc45)c(F)c3)n2)cc1` [Compound 25, N-(3-Fluoro-4-((6-methoxy-7-(3-morpholinopropoxy)quinolin-4-yl)oxy)phenyl)-1-(4-methoxyphenyl)-4-oxo-1,4-dihydropyridazine-3-carboxamide] came in with a melting point of 153.8 to 155.2 °C. This compound also yielded an IC50 in data set [1] of 27200 ± 1440 nM. Further, the IC50 in data set [2] is 4240 ± 620 nM. The IC50 in data set [3] turned out to be 233 nM. Also, the IC50 in data set [4] turned out to be 6750 ± 820 nM.

`COc1cc2c(Oc3ccc(NC(=O)c4nn(-c5ccc(F)c(Cl)c5)ccc4=O)cc3F)ccnc2cc1OCCCN1CCOCC1` [Compound 26, 1-(3-Chloro-4-fluorophenyl)-N-(3-fluoro-4-((6-methoxy-7-(3-morpholinopropoxy)quinolin-4-yl)oxy)phenyl)-4-oxo-1,4-dihydropyridazine-3-carboxamide] came in with a melting point of 138.1 to 140.6 °C. The IC50 in data set [1] is 5960 ± 770 nM. Also, the IC50 in data set [2] was 3700 ± 570 nM. The IC50 in data set [3] came out at 352 nM. Moreover, in data set [4], the IC50 is above 50000 nM.

In turn, `COc1cc2c(Oc3ccc(NC(=O)c4nn(-c5ccc(Br)cc5F)ccc4=O)cc3F)ccnc2cc1OCCCN1CCOCC1` [Compound 27, 1-(4-Bromo-2-fluorophenyl)-N-(3-fluoro-4-((6-methoxy-7-(3-morpholinopropoxy)quinolin-4-yl)oxy)phenyl)-4-oxo-1,4-dihydropyridazine-3-carboxamide] had a melting point of 113.7 to 115.1 °C. In data set [1], this compound came in with an IC50 above 50000 nM. This compound displayed an IC50 in data set [2] above 50000 nM. The IC50 in data set [3] was found to be 478 nM. This compound had an IC50 in data set [4] above 50000 nM.

The compound `COc1cc2c(Oc3ccc(NC(=O)c4nn(-c5ccc(Cl)c(C(F)(F)F)c5)ccc4=O)cc3F)ccnc2cc1OCCCN1CCOCC1` [Compound 28, 1-(4-Chloro-3-(trifluoromethyl)phenyl)-N-(3-fluoro-4-((6-methoxy-7-(3-morpholinopropoxy)quinolin-4-yl)oxy)phenyl)-4-oxo-1,4-dihydropyridazine-3-carboxamide] returned a melting point of 203.5 to 204.7 °C. This compound also yielded an IC50 in data set [1] of 7490 ± 870 nM. The same compound came in with an IC50 in data set [2] of 5250 ± 720 nM. Moreover, the IC50 in data set [3] came to 382 nM. The same compound showed an IC50 in data set [4] above 50000 nM.

For the compound `COc1cc2c(Oc3ccc(NC(=O)c4nn(-c5ccccc5)ccc4=O)cc3F)ccnc2cc1OCCCN1CCOCC1` [Compound 29, N-(3-Fluoro-4-((6-methoxy-7-(3-morpholinopropoxy)quinolin-4-yl)oxy)phenyl)-4-oxo-1-phenyl-1,4-dihydropyridazine-3-carboxamide], the melting point lay within 118.7 to 119.8 °C. The same compound came in with an IC50 in data set [1] of 30 ± 10 nM. In data set [2], this compound yielded an IC50 of 200 ± 20 nM. In data set [3], the IC50 is 16 nM. In data set [4], this compound gave an IC50 of 2270 ± 360 nM.

As to `COc1cc2c(Oc3ccc(NC(=O)c4nn(-c5ccc(F)cc5)ccc4=O)cc3F)ccnc2cc1OCCCN1CCCCC1` [Compound 30, N-(3-Fluoro-4-((6-methoxy-7-(3-(piperidin-1-yl)propoxy)quinolin-4-yl)oxy)phenyl)-1-(4-fluorophenyl)-4-oxo-1,4-dihydropyridazine-3-carboxamide], the melting point was 149.4 to 151.1 °C. In addition, the IC50 in data set [1] came out at 690 ± 20 nM. Moreover, in data set [2], 310 ± 10 nM corresponded to half-maximal inhibition (IC50). For the same compound, the IC50 in data set [3] was 17 nM. Also, the IC50 in data set [4] is 990 ± 10 nM.

Compound `COc1cc2c(Oc3ccc(NC(=O)c4nn(-c5ccc(Cl)cc5)ccc4=O)cc3F)ccnc2cc1OCCCN1CCCCC1` [Compound 31, 1-(4-Chlorophenyl)-N-(3-fluoro-4-((6-methoxy-7-(3-(piperidin-1-yl)propoxy)quinolin-4-yl)oxy)phenyl)-4-oxo-1,4-dihydropyridazine-3-carboxamide] gave a melting point of 158.2 to 159.6 °C. The same compound registered an IC50 in data set [1] of 1160 ± 60 nM. Further, the IC50 in data set [2] amounted to 570 ± 20 nM. The IC50 in data set [3] turned out to be 78 nM. In addition, in data set [4], the IC50 was 690 ± 30 nM.

For `COc1cc2c(Oc3ccc(NC(=O)c4nn(-c5ccc(F)cc5)ccc4=O)cc3F)ccnc2cc1OCCCN1CCN(C)CC1` [Compound 46, N-(3-Fluoro-4-((6-methoxy-7-(3-(4-methylpiperazin-1-yl)propoxy)quinolin-4-yl)oxy)phenyl)-1-(4-fluorophenyl)-4-oxo-1,4-dihydropyridazine-3-carboxamide], the half-inhibitory concentration (IC50) was 1660 ± 220 nM in data set [1], 1640 ± 220 nM in data set [2], 39 nM in data set [3] and 7510 ± 870 nM in data set [4].

For the compound `COc1cc2c(Oc3ccc(NC(=O)c4nn(-c5ccc(F)c(Cl)c5)ccc4=O)cc3F)ccnc2cc1OCCCN1CCN(C)CC1` [Compound 50, 1-(3-Chloro-4-fluorophenyl)-N-(3-fluoro-4-((6-methoxy-7-(3-(4-methylpiperazin-1-yl)propoxy)quinolin-4-yl)oxy)phenyl)-4-oxo-1,4-dihydropyridazine-3-carboxamide], the IC50 in data set [1] worked out at 20 ± 10 nM; in data set [2], 20 ± 10 nM; in data set [3], 2 nM; in data set [4], 2460 ± 390 nM.

In the case of `COc1cc2c(Oc3ccc(NC(=O)c4nn(-c5ccc(Br)cc5F)ccc4=O)cc3F)ccnc2cc1OCCCN1CCN(C)CC1` [Compound 51, 1-(4-Bromo-2-fluorophenyl)-N-(3-fluoro-4-((6-methoxy-7-(3-(4-methylpiperazin-1-yl)propoxy)quinolin-4-yl)oxy)phenyl)-4-oxo-1,4-dihydropyridazine-3-carboxamide], the IC50 came to 5430 ± 740 nM in data set [1], 5630 ± 750 nM in data set [2], 123 nM in data set [3] and 6390 ± 810 nM in data set [4].

Compound `COc1cc2c(Oc3ccc(NC(=O)C4(C(=O)Nc5ccc(F)cc5)CC4)cc3F)ccnc2cc1OCCCN1CCOCC1` [Foretinib, reference compound] showed an IC50 in data set [4] of 840 ± 70 nM.

By IC50 is commonly meant the concentration that gives 50% inhibition. The term melting point denotes the temperature, or range, at which the solid turns liquid.
